Read-outs that look alike come from different tables or passages of the source.
Legend:
[1] = tested on: Escherichia coli K-12 MG1655; assay: Screening for tolerance in wild-type cells: growth in varying concentrations of neutralized diacid, Biolector; format: cell-based; settings: for tlag (lag time), mean / μ (growth rate), mean: neutralized with sodium hydroxide
Protocol: Escherichia coli K-12 MG1655 was grown overnight in M9 minimal medium+1% glucose and subcultured the following morning to an initial OD600 of 0.05 in M9+1% glucose. Cells were grown to mid-exponential phase (OD600 0.7-1.0) and were back-diluted with fresh medium to an OD600 of 0.7. The diluted cells were used to inoculate M9+1% glucose containing varying concentrations of glutaric acid or adipic acid which were neutralized to pH 7.0 with sodium hydroxide, and growth was measured in FlowerPlates in a Biolector microbioreactor system (m2p-labs) at 37° C. with 1000 rpm shaking. The culture volume in each well was 1.4 mL.

[2] = tested on: Escherichia coli K-12 MG1655 and evolved isolates; format: cell-based; settings: 38 g/L sebacic acid
Protocol: Five colonies from wild-type K-12 MG1655 and 10 individual colonies deriving from each population were inoculated into 300 μL M9+1% glucose in 96 well deepwell plates and incubated in a 300 rpm plate shaker at 37° C. The next day, cells were diluted 10× in M9+1% glucose and 30 μL was transferred into clear-bottomed 96 well half-deepwell plates (with rectangular wells) containing M9+1% glucose and M9+1% glucose+52.78 g/L glutaric acid or 55.56 g/L adipic acid, such that the final concentration of glutaric acid or adipic acid was 47.5 g/L or 50 g/L, respectively. In addition, cryogenic glycerol stocks of the overnight culture were saved in a 96 well plate format. Half deepwell plates were incubated at 37° C. with 225 rpm shaking in a Growth Profiler (Enzyscreen), with optical scans of the plates taken at 15 minute intervals. Green pixel values integrated over a 1 mm diameter circular area in each well were converted to OD600 values using a previously determined calibration between OD600 and green pixel values.
Additionally, each evolved isolate was tested for cross-tolerance toward other dicarboxylic acids of interest. […] All diacids tested were either the neutral sodium salts, or the free diacid was neutralized with sodium hydroxide to pH 7.0 for testing.

SMILES: O=C(O)CCCCCCCCC(=O)O [sebacic acid]
- tlag (lag time), mean ([1]; 10 g/L): 1.9 h
- μ (growth rate), mean ([1]; 10 g/L, M9+1% glucose, 37° C): 0.707 h⁻¹
- tlag (lag time), mean ([1]; 20 g/L): 2.7 h
- μ (growth rate), mean ([1]; 20 g/L): 0.578 h⁻¹
- tlag (lag time), mean ([1]; 25 g/L): 3.3 h
- μ (growth rate), mean ([1]; 25 g/L): 0.413 h⁻¹
- tlag (lag time), mean ([1]; 30 g/L): 5.7 h
- μ (growth rate), mean ([1]; 30 g/L): 0.386 h⁻¹
- tlag (lag time), mean ([1]; 35 g/L): 10.8 h
- μ (growth rate), mean ([1]; 35 g/L): 0.306 h⁻¹
- tlag (lag time), mean ([1]; 40 g/L): 22.5 h
- μ (growth rate), mean ([1]; 40 g/L): 0.222 h⁻¹
- tlag (lag time), mean ([1]; 45 g/L): 50.6 h
- μ (growth rate), mean ([1]; 45 g/L): 0.051 h⁻¹
- growth of K-12 MG1655 ([1]; above 40 g/L concentration): nearly no growth detected
- growth rate μ (mean) ([2]; strain ADIP1-1): 0.244 h⁻¹
- lag time tlag (mean) ([2]; strain ADIP1-1): 21.6 h
- growth rate μ (mean) ([2]; strain ADIP1-9): 0.248 h⁻¹
- lag time tlag (mean) ([2]; strain ADIP1-9): 17.8 h
- growth rate μ (mean) ([2]; strain ADIP2-5): 0.315 h⁻¹
- lag time tlag (mean) ([2]; strain ADIP2-5): 13.5 h
- growth rate μ (mean) ([2]; strain ADIP2-6): 0.319 h⁻¹
- lag time tlag (mean) ([2]; strain ADIP2-6): 12.9 h
- growth rate μ (mean) ([2]; strain ADIP2-10): 0.290 h⁻¹
- lag time tlag (mean) ([2]; strain ADIP2-10): 13.4 h
- growth rate μ (mean) ([2]; strain ADIP3-2): 0.254 h⁻¹
- lag time tlag (mean) ([2]; strain ADIP3-2): 17.6 h
- growth rate μ (mean) ([2]; strain ADIP3-4): 0.262 h⁻¹
- lag time tlag (mean) ([2]; strain ADIP3-4): 17.1 h
- growth rate μ (mean) ([2]; strain ADIP3-8): 0.253 h⁻¹
- lag time tlag (mean) ([2]; strain ADIP3-8): 19.8 h
- growth rate μ (mean) ([2]; strain ADIP4-1): 0.308 h⁻¹
- lag time tlag (mean) ([2]; strain ADIP4-1): 13.1 h
- growth rate μ (mean) ([2]; strain ADIP4-8): 0.289 h⁻¹
- lag time tlag (mean) ([2]; strain ADIP4-8): 12.8 h
- growth rate μ (mean) ([2]; strain ADIP5-2): 0.288 h⁻¹
- lag time tlag (mean) ([2]; strain ADIP5-2): 15.3 h
- growth rate μ (mean) ([2]; strain ADIP5-6): 0.273 h⁻¹
- lag time tlag (mean) ([2]; strain ADIP5-6): 20.7 h
- growth rate μ (mean) ([2]; strain ADIP6-3): 0.268 h⁻¹
- lag time tlag (mean) ([2]; strain ADIP6-3): 17.9 h
- growth rate μ (mean) ([2]; strain ADIP6-9): 0.181 h⁻¹
- lag time tlag (mean) ([2]; strain ADIP6-9): 23.1 h
- growth rate μ (mean) ([2]; strain ADIP6-10): 0.267 h⁻¹
- lag time tlag (mean) ([2]; strain ADIP6-10): 15.3 h
- growth rate μ (mean) ([2]; strain ADIP7-2): 0.356 h⁻¹
- lag time tlag (mean) ([2]; strain ADIP7-2): 11.1 h
- growth rate μ (mean) ([2]; strain ADIP7-5): 0.353 h⁻¹
- lag time tlag (mean) ([2]; strain ADIP7-5): 12.0 h
- growth rate μ (mean) ([2]; strain ADIP8-3): 0.171 h⁻¹
- lag time tlag (mean) ([2]; strain ADIP8-3): 28.9 h
- growth rate μ (mean) ([2]; strain ADIP8-7): 0.157 h⁻¹
- lag time tlag (mean) ([2]; strain ADIP8-7): 30.9 h
- growth rate μ (mean) ([2]; strain ADIP8-10): 0.165 h⁻¹
- lag time tlag (mean) ([2]; strain ADIP8-10): 30.0 h
- growth rate μ (mean) ([2]; strain GLUT1-3): 0.074 h⁻¹
- lag time tlag (mean) ([2]; strain GLUT1-3): 34.9 h
- growth rate μ (mean) ([2]; strain GLUT1-9): 0.043 h⁻¹
- lag time tlag (mean) ([2]; strain GLUT1-9): 44.7 h
- growth rate μ (mean) ([2]; strain GLUT1-10): 0.278 h⁻¹
- lag time tlag (mean) ([2]; strain GLUT1-10): 20.6 h
- growth rate μ (mean) ([2]; strain GLUT2-1): 0.153 h⁻¹
- lag time tlag (mean) ([2]; strain GLUT2-1): 21.7 h
- growth rate μ (mean) ([2]; strain GLUT2-9): 0.282 h⁻¹
- lag time tlag (mean) ([2]; strain GLUT2-9): 12.5 h
- growth rate μ (mean) ([2]; strain GLUT2-10): 0.093 h⁻¹
- lag time tlag (mean) ([2]; strain GLUT2-10): 29.8 h
- growth rate μ (mean) ([2]; strain GLUT3-5): 0.106 h⁻¹
- lag time tlag (mean) ([2]; strain GLUT3-5): 20.0 h
- growth rate μ (mean) ([2]; strain GLUT3-7): 0.068 h⁻¹
- lag time tlag (mean) ([2]; strain GLUT3-7): 6.4 h
- growth rate μ (mean) ([2]; strain GLUT3-9): 0.158 h⁻¹
- lag time tlag (mean) ([2]; strain GLUT3-9): 18.9 h
- growth rate μ (mean) ([2]; strain GLUT4-1): 0.266 h⁻¹
- lag time tlag (mean) ([2]; strain GLUT4-1): 32.9 h
- growth rate μ (mean) ([2]; strain GLUT4-4): 0.265 h⁻¹
- lag time tlag (mean) ([2]; strain GLUT4-4): 34.2 h
- growth rate μ (mean) ([2]; strain GLUT4-10): 0.113 h⁻¹
- lag time tlag (mean) ([2]; strain GLUT4-10): 20.1 h
- growth rate μ (mean) ([2]; strain GLUT5-4): 0.183 h⁻¹
- lag time tlag (mean) ([2]; strain GLUT5-4): 37.7 h
- growth rate μ (mean) ([2]; strain GLUT5-5): 0.117 h⁻¹
- lag time tlag (mean) ([2]; strain GLUT5-5): 54.9 h
- growth rate μ (mean) ([2]; strain GLUT5-9): 0.143 h⁻¹
- lag time tlag (mean) ([2]; strain GLUT5-9): 58.2 h
- growth rate μ (mean) ([2]; strain GLUT6-4): 0.085 h⁻¹
- lag time tlag (mean) ([2]; strain GLUT6-4): 26.4 h
- growth rate μ (mean) ([2]; strain GLUT6-5): 0.123 h⁻¹
- lag time tlag (mean) ([2]; strain GLUT6-5): 21.6 h
- growth rate μ (mean) ([2]; strain GLUT6-10): 0.132 h⁻¹
- lag time tlag (mean) ([2]; strain GLUT6-10): 26.2 h
- growth rate μ (mean) ([2]; strain GLUT7-2): 0.173 h⁻¹
- lag time tlag (mean) ([2]; strain GLUT7-2): 17.5 h
- growth rate μ (mean) ([2]; strain GLUT7-6): 0.141 h⁻¹
- lag time tlag (mean) ([2]; strain GLUT7-6): 18.9 h
- growth rate μ (mean) ([2]; strain GLUT7-7): 0.112 h⁻¹
- lag time tlag (mean) ([2]; strain GLUT7-7): 20.0 h
- growth rate μ (mean) ([2]; strain GLUT8-5): 0.300 h⁻¹
- lag time tlag (mean) ([2]; strain GLUT8-5): 21.4 h
- growth rate μ (mean) ([2]; strain GLUT8-6): 0.464 h⁻¹
- lag time tlag (mean) ([2]; strain GLUT8-6): 13.7 h
- growth rate μ (mean) ([2]; strain GLUT8-9): 0.471 h⁻¹
- lag time tlag (mean) ([2]; strain GLUT8-9): 14.5 h
- growth rate μ (mean) ([2]; strain MG1655 (Table 28)): 0.167 h⁻¹
- lag time tlag (mean) ([2]; strain MG1655 (Table 28)): 26.9 h
- growth rate μ (mean) ([2]; strain MG1655 (Table 29)): 0.135 h⁻¹
- lag time tlag (mean) ([2]; strain MG1655 (Table 29)): 28.2 h

Reference: patent US20230139445A1, “BACTERIAL CELLS WITH IMPROVED TOLERANCE TO DIACIDS” (priority 2016, published 2023)
